Our source for the IC50 values is article PMC5458257, “Identification of JL1037 as a novel, specific, reversible lysine-specific demethylase 1 inhibitor that induce apoptosis and autophagy of AML cells” (Oncotarget, 2017).

By IC50 is commonly meant the concentration that inhibits the measured activity by half. A lower IC50 goes with greater potency.

Format in all cases: biochemical
For test [1], the target named is T1, MAO-B (Homo sapiens, UniProt P27338).
T1 construct: gene MAOB
T1 sequence (P27338 2-520): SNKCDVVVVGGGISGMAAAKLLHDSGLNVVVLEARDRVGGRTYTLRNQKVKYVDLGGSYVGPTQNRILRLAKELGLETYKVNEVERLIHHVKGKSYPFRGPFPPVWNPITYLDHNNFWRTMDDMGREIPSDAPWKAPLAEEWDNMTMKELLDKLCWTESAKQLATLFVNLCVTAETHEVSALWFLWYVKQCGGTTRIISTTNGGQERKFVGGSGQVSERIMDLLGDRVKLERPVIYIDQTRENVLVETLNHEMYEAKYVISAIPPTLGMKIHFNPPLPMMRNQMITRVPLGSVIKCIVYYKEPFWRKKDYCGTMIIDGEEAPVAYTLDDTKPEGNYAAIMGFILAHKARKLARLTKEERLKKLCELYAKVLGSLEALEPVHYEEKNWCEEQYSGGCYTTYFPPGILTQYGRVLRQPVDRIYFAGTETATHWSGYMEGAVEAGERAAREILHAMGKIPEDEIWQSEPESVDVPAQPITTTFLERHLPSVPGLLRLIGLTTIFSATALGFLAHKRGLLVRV
Put plainly: MAO-Glo luminescent enzyme assay (Promega V1401), selectivity test. The text has this:
MAO-Glo luminescent enzyme assay (Promega V1401), selectivity test on MAO-B | JL1037 enzymatic inhibitory activity against LSD1, MAO-A and MAO-B.

Test [2] addresses T2, MAO-A (Homo sapiens, UniProt P21397).
T2 construct: gene MAOA
T2 sequence (P21397 1-527): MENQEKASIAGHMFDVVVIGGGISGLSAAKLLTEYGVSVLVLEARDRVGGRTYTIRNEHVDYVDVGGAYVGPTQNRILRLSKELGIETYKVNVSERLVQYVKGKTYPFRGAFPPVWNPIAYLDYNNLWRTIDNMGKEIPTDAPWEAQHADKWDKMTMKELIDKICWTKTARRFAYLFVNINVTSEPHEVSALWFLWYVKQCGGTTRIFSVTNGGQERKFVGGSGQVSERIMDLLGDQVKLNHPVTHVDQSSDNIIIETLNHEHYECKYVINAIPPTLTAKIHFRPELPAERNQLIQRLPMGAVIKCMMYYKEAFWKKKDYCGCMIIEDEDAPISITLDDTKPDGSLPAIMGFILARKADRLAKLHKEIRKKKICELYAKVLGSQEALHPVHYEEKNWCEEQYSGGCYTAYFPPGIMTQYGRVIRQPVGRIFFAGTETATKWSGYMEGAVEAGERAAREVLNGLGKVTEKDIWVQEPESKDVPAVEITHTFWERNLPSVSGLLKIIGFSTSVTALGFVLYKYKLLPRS
The description is as above. The text has this:
MAO-Glo luminescent enzyme assay (Promega V1401), selectivity test on MAO-A | JL1037 enzymatic inhibitory activity against LSD1, MAO-A and MAO-B.

In test [3] the target is T3, Lysine-specific demethylase 1 (LSD1) (Homo sapiens, UniProt O60341).
T3 construct: gene KDM1A
Nature of the test: LSD1 Fluorimetric Drug Discovery kit (Enzo BML-AK544), HRP-coupled, H3K4me2 substrate.

JL1037: the 50% inhibitory concentration (IC50) in test [1] amounted to 1770 nM; in test [2] it was 1920 nM; in test [3], 110 nM.
